Source: patent US10174029B2, “Pyrimidine-2,4-diamine derivatives for treatment of cancer” (THOMAS HELLEDAYS STIFTELSE FOR MEDICINSK FORSKNING, priority 2012, dated 2019)

Target: MTH1 (Homo sapiens, UniProt P36639)
Assay: MTH1 enzymatic assay and IC50 value determination (malachite green)
Type: biochemical
Conditions: MTH1 4.8 nM, dGTP 100 μM, 15 minutes at 22° C.
In short: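 Malachite green detection of Pi after coupling dGTP hydrolysis to excess E. coli pyrophosphatase; 4.8 nM MTH1, 100 μM dGTP in Tris-acetate buffer with Mg2+ and DTT, 1% DMSO, 15 min at 22 °C. 12-point 1:3 compound series; absorbance at 630 nm; IC50 by four-parameter nonlinear regression.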

SMILES | IC50 (group: less than 200 nM) [µM] | IC50 (group: between 2 μM and 10 μM) [µM]
Nc1nc(NCCc2ccc(S(N)(=O)=O)cc2)cc(-c2cccc(Cl)c2Cl)n1 [Example 296, 4-(2-{[2-amino-6-(2,3-dichlorophenyl)pyrimidin-4-yl]amino}ethyl)benzene-1-sulfonamide] | < 0.2 | 
C[C@@H]1[C@H]2C[C@@H](C[C@H]1Nc1cc(-c3cccc(Cl)c3Cl)nc(N)n1)C2(C)C [Example 299, 6-(2,3-dichlorophenyl)-4-N-[(1R,2R,3R,5S)-2,6,6-trimethylbicyclo[3.1.1]heptan-3-yl]pyrimidine-2,4-diamine] |  | 2 to 10
CC1CCN(Cc2cccc(CNc3cc(-c4cccc(Cl)c4Cl)nc(N)n3)c2)CC1 [Example 300, 6-(2,3-Dichlorophenyl)-4-N-({3-[(4-methylpiperidin-1-yl)methyl]phenyl}methyl)-pyrimidine-2,4-diamine] | < 0.2 | 
Nc1nc(NCCc2ccc(O)cc2)cc(-c2cccc(Cl)c2Cl)n1 [Example 301, 4-(2-{[2-Amino-6-(2,3-dichlorophenyl)pyrimidin-4-yl]amino}ethyl)phenol] | < 0.2 | 
Nc1nc(NC23CC4CC(CC2C4)C3)cc(-c2cccc(Cl)c2Cl)n1 [Example 304, 6-(2,3-Dichlorophenyl)-4-N-{tricyclo[3.3.1.0^3,7]nonan-3-yl}pyrimidine-2,4-diamine] | < 0.2 | 
CNc1cc(-c2cccc(NC(=O)c3ncccc3O)c2)nc(N)n1 [Example 308, N-{3-[2-amino-6-(methylamino)pyrimidin-4-yl]phenyl}-3-hydroxypyridine-2-carboxamide] | < 0.2 | 
CNc1cc(-c2cccc(NC(=O)/C=C/CN(C)C)c2)nc(N)n1 [Example 312, (2E)-N-{3-[2-Amino-6-(methylamino)pyrimidin-4-yl]phenyl}-4-(dimethylamino)but-2-enamide] | < 0.2 | 
C=CS(=O)(=O)Nc1cccc(-c2cc(NC)nc(N)n2)c1 [Example 313, N-{3-[2-amino-6-(methylamino)pyrimidin-4-yl]phenyl}ethene-1-sulfonamide] | < 0.2 | 
CNc1cc(-c2cccc(NC(=O)C(C)=O)c2)nc(N)n1 [Example 315, N-{3-[2-Amino-6-(methylamino)pyrimidin-4-yl]phenyl}-2-oxopropanamide] | < 0.2 | 
CNc1cc(-c2cccc(NC(=O)C(=O)c3ccccc3)c2)nc(N)n1 [Example 316, N-{3-[2-Amino-6-(methylamino)pyrimidin-4-yl]phenyl}-2-oxo-2-phenylacetamide] | < 0.2 | 
C=CC(=O)Nc1ccc(-c2cc(NC)nc(N)n2)cc1 [Example 317, N-{4-[2-Amino-6-(methylamino)pyrimidin-4-yl]phenyl}prop-2-enamide] | < 0.2 | 
CNc1cc(-c2cccc(NC(=O)CO)c2)nc(N)n1 [Example 322, N-{3-[2-Amino-6-(methylamino)pyrimidin-4-yl]phenyl}-2-hydroxyacetamide] | < 0.2 | 
CNc1cc(-c2cccc(NC(=O)C(O)c3ccc(Cl)cc3)c2)nc(N)n1 (stereo not shown) [Example 323, N-{3-[2-Amino-6-(methylamino)pyrimidin-4-yl]phenyl}-2-(4-chlorophenyl)-2-hydroxyacetamide] | < 0.2 | 
CNc1cc(-c2cccc(NC(=O)C(O)c3ccccc3)c2)nc(N)n1 (stereo not shown) [Example 324, N-{3-[2-Amino-6-(methylamino)pyrimidin-4-yl]phenyl}-2-hydroxy-2-phenylacetamide] | < 0.2 | 
CNc1cc(-c2cccc(NC(=O)c3ccccc3O)c2)nc(N)n1 [Example 326, N-{3-[2-Amino-6-(methylamino)pyrimidin-4-yl]phenyl}-2-hydroxybenzamide] | < 0.2 | 
CNc1cc(-c2ccc(C(=O)C(F)(F)F)cc2)nc(N)n1 [Example 327, 1-{4-[2-Amino-6-(methylamino)pyrimidin-4-yl]phenyl}-2,2,2-trifluoroethan-1-one] | < 0.2 | 
CNc1cc(-c2ccc(CN)cc2)nc(N)n1 [Example 329, 6-[4-(Aminomethyl)phenyl]-4-N-methylpyrimidine-2,4-diamine] | < 0.2 | 
Cc1cccc(-c2cc(NCCc3ccc(S(N)(=O)=O)cc3)nc(N)n2)c1C [Example 330, 4-(2-{[2-Amino-6-(2,3-dimethylphenyl)pyrimidin-4-yl]amino}ethyl)benzene-1-sulfonamide] | < 0.2 | 
Cc1cccc(-c2cc(NCCc3ccc(S(C)(=O)=O)cc3)nc(N)n2)c1C [Example 331, 6-(2,3-Dimethylphenyl)-4-N-[2-(4-methanesulfonylphenyl)ethyl]pyrimidine-2,4-diamine] | < 0.2 | 
Cc1cccc(-c2cc(NCCc3ccc(C#N)cc3)nc(N)n2)c1C [Example 333, 4-(2-{[2-Amino-6-(2,3-dimethylphenyl)pyrimidin-4-yl]amino}ethyl)benzonitrile] | < 0.2 | 

SMILES | IC50 (group: less than 200 nM) [µM] | IC50 (group: between 2 μM and 10 μM) [µM]
Cc1cccc(-c2cc(NCCc3ccncc3)nc(N)n2)c1C [Example 334, 6-(2,3-Dimethylphenyl)-4-N-[2-(pyridin-4-yl)ethyl]pyrimidine-2,4-diamine] | < 0.2 | 
Cc1cccc(-c2cc(NCCOc3ccc(C#N)cc3)nc(N)n2)c1C [Example 335, 4-(2-{[2-Amino-6-(2,3-dimethylphenyl)pyrimidin-4-yl]amino}ethoxy)benzonitrile] | < 0.2 | 
Cc1cccc(-c2cc(NCc3ccc(S(N)(=O)=O)cc3)nc(N)n2)c1C [Example 336, 4-({[2-Amino-6-(2,3-dimethylphenyl)pyrimidin-4-yl]amino}methyl)benzene-1-sulfonamide] | < 0.2 | 
Cc1cccc(-c2cc(NCC(C)c3ccc(Cl)cc3)nc(N)n2)c1C (stereo not shown) [Example 343, 4-N-[2-(4-Chlorophenyl)propyl]-6-(2,3-dimethylphenyl)pyrimidine-2,4-diamine] | < 0.2 | 
COc1ccc(C(CNc2cc(-c3cccc(C)c3C)nc(N)n2)N2CCCC2)cc1 (stereo not shown) [Example 345, 6-(2,3-Dimethylphenyl)-4-N-[2-(4-methoxyphenyl)-2-(pyrrolidin-1-yl)ethyl]pyrimidine-2,4-diamine] |  | 2 to 10
Cc1cccc(-c2cc(NCc3ccc(N(C)C)cc3)nc(N)n2)c1C [Example 346, 4-N-{[4-(Dimethylamino)phenyl]methyl}-6-(2,3-dimethylphenyl)pyrimidine-2,4-diamine] | < 0.2 | 
Cc1cccc(-c2cc(NCc3cnn(-c4ccc(F)cc4)c3)nc(N)n2)c1C [Example 348, 6-(2,3-Dimethylphenyl)-4-N-{[1-(4-fluorophenyl)-1H-pyrazol-4-yl]methyl}pyrimidine-2,4-diamine] | < 0.2 | 
Cc1cccc(-c2cc(NCCc3n[nH]c(-c4ccncc4)n3)nc(N)n2)c1C [Example 349, 6-(2,3-dimethylphenyl)-4-N-{2-[5-(pyridin-4-yl)-1H-1,2,4-triazol-3-yl]ethyl}pyrimidine-2,4-diamine] | < 0.2 | 
Cc1cccc(-c2cc(NCC3CCCN(c4ncccn4)C3)nc(N)n2)c1C (stereo not shown) [Example 350, 6-(2,3-Dimethylphenyl)-4-N-{[1-(pyrimidin-2-yl)piperidin-3-yl]methyl}pyrimidine-2,4-diamine] | < 0.2 | 
COc1ccc2nc(CCNc3cc(-c4cccc(C)c4C)nc(N)n3)[nH]c2c1 [Example 351, 6-(2,3-Dimethylphenyl)-4-N-[2-(6-methoxy-1H-1,3-benzodiazol-2-yl)ethyl]pyrimidine-2,4-diamine] | < 0.2 | 
Cc1cccc(-c2cc(NCCCNS(=O)(=O)c3c(C)noc3C)nc(N)n2)c1C [Example 359, N-(3-{[2-Amino-6-(2,3-dimethylphenyl)pyrimidin-4-yl]amino}propyl)-3,5-dimethyl-1,2-oxazole-4-sulfonamide] | < 0.2 | 
Cc1cccc(-c2cc(NCCCNC(=O)Nc3cc(Cl)nc(Cl)c3)nc(N)n2)c1C [Example 361, 3-(3-{[2-Amino-6-(2,3-dimethylphenyl)pyrimidin-4-yl]amino}propyl)-1-(2,6-dichloropyridin-4-yl)urea] | < 0.2 | 
CC(=O)Nc1cccc(OCCCNc2cc(-c3cccc(C)c3C)nc(N)n2)c1 [Example 363, N-[3-(3-{[2-Amino-6-(2,3-dimethylphenyl)pyrimidin-4-yl]amino}propoxy)phenyl]acetamide] | < 0.2 | 
Cc1cccc(-c2cc(NCCCNC(=O)c3cccc(Br)c3)nc(N)n2)c1C [Example 367, N-(3-{[2-Amino-6-(2,3-dimethylphenyl)pyrimidin-4-yl]amino}propyl)-3-bromobenzamide] | < 0.2 | 
Cc1cccc(-c2cc(NCCCNS(=O)(=O)c3cccc(C#N)c3)nc(N)n2)c1C [Example 374, N-(3-{[2-Amino-6-(2,3-dimethylphenyl)pyrimidin-4-yl]amino}propyl)-3-cyanobenzene-1-sulfonamide] | < 0.2 | 
Cc1cccc(-c2cc(NCCCNS(=O)(=O)c3ccccc3)nc(N)n2)c1C [Example 376, N-(3-{[2-Amino-6-(2,3-dimethylphenyl)pyrimidin-4-yl]amino}propyl)benzenesulfonamide] | < 0.2 | 
C=CCNc1cc(-c2cccc(C)c2C)nc(N)n1 [Example 379, 6-(2,3-Dimethylphenyl)-4-N-(prop-2-en-1-yl)pyrimidine-2,4-diamine] | < 0.2 | 
Cc1cccc(-c2cc(NCCCNS(=O)(=O)c3cccc(F)c3)nc(N)n2)c1C [Example 381, N-(3-{[2-Amino-6-(2,3-dimethylphenyl)pyrimidin-4-yl]amino}propyl)-3-fluorobenzene-1-sulfonamide] | < 0.2 | 
C#CCNc1cc(-c2cccc(C)c2C)nc(N)n1 [Example 386, 6-(2,3-Dimethylphenyl)-4-N-(prop-2-yn-1-yl)pyrimidine-2,4-diamine] | < 0.2 | 
Cc1cccc(-c2cc(NCCCNS(=O)(=O)c3c(C)nn(C)c3Cl)nc(N)n2)c1C [Example 389, N-(3-{[2-Amino-6-(2,3-dimethylphenyl)pyrimidin-4-yl]amino}propyl)-5-chloro-1,3-dimethyl-1H-pyrazole-4-sulfonamide] | < 0.2 | 
